The subject of this data set is Human plasma stability, percent remaining. As to the kind of experiment: compound stability in Homo sapiens plasma, ADME assay, biochemical, second set (AID 624420). The settings on record: at 1 µM.
The molecule `COc1ccc(S(=O)(=O)n2nc(OC(=O)c3ccccc3)cc2N)cc1` returned a plasma stability of 0.3%.
With `COc1ccc(CSc2nc(C)cc(=O)[nH]2)cc1` the figure was 100%.
As for `O=C(O)c1ccc(N2C(=O)/C(=C/c3ccc(-c4ccc([N+](=O)[O-])cc4)o3)C=C2c2ccccc2)cc1`, the plasma stability stood at 87.3%.
The result for `N#C/C(=C\c1ccc([N+](=O)[O-])o1)c1nc2ccccc2[nH]1` reads 16.9%; that for `Cc1cc(C)nc(-n2nc(C)c(Sc3ccc(F)cc3)c2N)n1`, 97%.
The result for `Cc1ccc(NS(=O)(=O)c2ccc3c(c2)CCC(=O)N3)cc1C` reads 100%; that for `c1ccc(-c2nnc(N3CCOCC3)nc2-c2ccccc2)cc1`, 100%; that for `Cc1ccc(N2CCN(S(=O)(=O)N3CCCCC3)CC2)c(C)c1`, 100%.
The result for `CCCn1ncc(CN2CCCC(C(=O)c3cccc(OC(C)C)c3)C2)c1C` (stereo not given) reads 100%.
For `CCCC(=O)Nc1cccc(NC(=O)c2ccccc2Br)c1`, the plasma stability was found to be 87.8%.
With `CSc1nc(-c2ccc(C)cc2)nc(C(Cl)Cl)n1` the figure was 81.9%; with `Brc1ccc2c(c1)CN1CCCC1=N2`, 100%.
For the molecule `O=S(=O)(NC1CCCCC1N1CCOCC1)c1ccc(Cl)cc1` (stereo not given), the plasma stability is 100%.
Take `Cc1nc(SCc2nc3ccccc3[nH]2)c2oc3ccccc3c2n1`: the plasma stability turned out to be 88%.
The result for `O=C(CCNS(=O)(=O)c1cccc2nsnc12)N1CCN(c2ccccn2)CC1` reads 91.2%; that for `CC(=O)c1ccc(N2CCN(S(=O)(=O)c3ccc4c(c3)CC(=O)N4)CC2)cc1`, 80.6%.
`COc1cccc(-c2nc(-c3ccc(NC(=O)Cc4ccccc4OC)cc3)no2)c1` displayed a plasma stability of 100%.
With `Cc1cc2c(s1)c1cnn(Cc3ccccc3F)c(=O)c1n2C` the figure was 82.8%; with `COc1ccccc1N(/N=C1\Sc2ccccc2C1=O)C(C)=O`, 94.1%.
The result for `O=C(O)CCC(NS(=O)(=O)c1ccc(-c2ccccc2)cc1)C(=O)O` (stereo not given) reads 57%.
Regarding `O=[N+]([O-])c1ccc(CN2CCOCCOCCN(Cc3ccc([N+](=O)[O-])cc3)CCOCC2)cc1`, the plasma stability amounted to 98.3%.
The result for `O=C1CCCC2=C1C1(CCCC1)N=C(Nc1nc3ccccc3o1)N2` reads 100%; that for `COc1ccc(C2c3c(ncn(CCN4CCOCC4)c3=N)Oc3ccc4ccccc4c32)cc1OC` (stereo not given), 93.5%; that for `N#Cc1ccccc1CSc1nc2ncc(Br)cc2[nH]1`, 95.4%.
With `NC(=O)C1CCN(c2nc(-c3ccc(Br)cc3)cs2)CC1` the figure was 96.8%; with `CCOC(=O)C(C)Oc1cccc2c(=O)n(CC(=O)Nc3ccc4c(c3)OCCO4)ccc12` (stereo not given), 37.7%; with `CCCc1nc2c(=O)n(C)c(=O)nc-2n(C)n1`, 1.52%.
Turning to `Cn1cnc([N+](=O)[O-])c1Sc1ncnc2nc[nH]c12`, the plasma stability turned out to be 83.2%.
The result for `COc1ccc(OC)c(S(=O)(=O)Nc2cnc3ccccc3c2)c1` reads 83%.
For `COc1ccc(S(=O)(=O)N2CCN(S(=O)(=O)c3ccc4c(c3)OCCO4)CC2)cc1`, the plasma stability stood at 96.4%.
The result for `CCN1CCN(c2nc3ccccc3nc2C(C#N)C(=O)OC2CCCCC2)CC1` (stereo not given) reads 100%; that for `C/C=C/Cn1c(SCCCc2ccccc2)nc2c1c(=O)[nH]c(=O)n2C`, 98.5%; that for `C=CCn1c(SCC(=O)c2ccc(O)c(O)c2)nnc1-c1ccccc1OC`, 100%.
Take `COc1nc(-c2ccccc2)nnc1-c1ccccc1`: the plasma stability turned out to be 100%.
`O=c1[nH]c(SCc2ccc(Cl)cc2)nc2c1CCC2` registered a plasma stability of 100%.
The result for `CN(C)c1nc(N)nc(CSc2nnnn2-c2cccc3ccccc23)n1` reads 100%.
As to `CCOc1ccc(NC(=S)N2CCC(C(O)(c3ccccc3)c3ccccc3)CC2)cc1`, the plasma stability was 63.7%.
With `CCc1nnc(NC(=O)c2ccc(NS(=O)(=O)c3ccccc3)cc2)s1` the figure was 100%; with `c1ccc(CC2CCN(c3ncnc4sccc34)CC2)cc1`, 100%.
The result for `Cc1cc(C)n(-c2nc(NCCCO)c3c4c(sc3n2)CCCC4)n1` reads 88.5%; that for `CCCN(CCC)CCNC(=O)C1CCN(Cc2nc(-c3ccc(Cl)cc3)oc2C)CC1`, 100%; that for `Cc1ccnc(NC(=O)CCCOc2cc(=O)n(C)c3ccccc23)c1`, 100%.
With `O=C1C2CC=CCC2C(=O)N1c1n[nH]c(-c2ccccc2)n1` (stereo not given) the figure was 69.8%; with `Cc1cc(-c2nnc3n2CCCCC3)c(C)n1-c1ccccc1`, 87.9%.
`CCCOc1ccc(-c2nc(OC)c3ccccc3n2)cc1` returned a plasma stability of 100%.
On to `O=C(COc1ccccc1Br)NCCc1nc2ccccc2[nH]1`, for which the plasma stability was determined as 88%.
`Cc1cc(C(=O)CN2C(=O)CCC2=O)c(C)n1Cc1ccccc1`: the plasma stability is 84%.
The result for `O=C(COC(=O)C12CC3CC(CC(C3)C1)C2)NCc1ccco1` reads 58.7%; that for `CCCc1cc(C(=O)N(C2CCCCC2)C2CCCCC2)no1`, 67.4%.
The result for `Cc1ccccc1N1CCN(c2ncnc3c2cnn3Cc2ccc(Cl)cc2)CC1` reads 88.2%; that for `COc1ccc(CNCc2cccc3ccccc23)cc1`, 92.1%; that for `CC[C@H]1CN2CCc3cc(OC)c(OC)cc3[C@@H]2C[C@@H]1C[C@H]1NCCc2cc(OC)c(OC)cc21`, 91.5%.
With `Cc1ccc(S(=O)(=O)n2c(N)nc3ccccc32)cc1` the figure was 95.8%; with `O=c1c2ccccc2[se]n1-c1ccccc1`, 100%.
`Cc1ccc(S(=O)(=O)C(c2ccccc2)c2c(C)noc2C)cc1` (stereo not given) showed a plasma stability of 91.9%.
The result for `Cc1ccc(C)c(NS(=O)(=O)c2cc(C(=O)Nc3ccccc3-c3ccccc3)ccc2Cl)c1` reads 100%; that for `COc1ccc(Sc2ccc(NC(=O)c3ccccc3Cl)cc2C#N)cc1`, 91.9%; that for `O=C(O)c1ccccc1OCc1ccccc1Br`, 76.7%.
With `O=C(O)c1cccnc1SCCc1ccccc1` the figure was 88.3%; with `CS(=O)(=O)c1ccc(C(=O)OCC(=O)NC23CC4CC(CC(C4)C2)C3)cc1[N+](=O)[O-]`, 0.07%.
The result for `Cc1ccc(C(=O)n2c3ccccc3c3ccccc32)cc1` reads 92%; that for `O=c1[nH]c2c(s1)C(c1cccnc1)C1C3CCC(C3)C1S2` (stereo not given), 86.8%.
`CCOc1ccc(-c2nc(-c3ccncc3)no2)cc1OCC` returned a plasma stability of 100%.
Turning to `CCc1oc2ccccc2c1C(=O)c1cc(Br)c(O)c(Br)c1`, the plasma stability stood at 94.6%.
With `CC1CCCN(C(C(=O)Nc2ccc3c(c2)OCCO3)c2ccccc2)C1` (stereo not given) the figure was 100%.
With `CC(C)C(=O)NC(c1ccco1)c1ccc2cccnc2c1O` (stereo not given) the figure was 100%.
With `COc1ccc(OC)c(-c2nnc3n2N=C(c2ccc(OC)c(OC)c2)CS3)c1` the figure was 100%; with `Cc1ccc(S(=O)(=O)NCc2ccc(C(=O)NCCN(Cc3ccccc3)C(C)C)cc2)cc1`, 100%.
Consider `Cc1ccc(C)c(OCCn2cc(C(=O)O)c3ccccc32)c1`, for which the plasma stability was determined as 91.6%.
For the molecule `O=S1(=O)Nc2c(ccc3cccnc23)-c2ccccc21`, the plasma stability turned out to be 100%.
The result for `O=C(CSc1cccc2cccnc12)N1CCCC1` reads 99.3%; that for `CCCN1CNc2c(c(=O)[nH]c(=S)n2CCc2ccc(OC)c(OC)c2)C1`, 85.1%; that for `Cc1ccc(NC(=O)CCC(=O)N/N=C/c2ccc([N+](=O)[O-])o2)cc1C`, 67%.
The result for `Cc1cccc(-n2cnc3cc(C(=O)N4CCCCC4)ccc32)c1` reads 87%.
Turning to `Cc1ccc(-n2c(N)c(C#N)c(-c3ccccc3)c(C#N)c2=O)cc1`, the plasma stability stood at 99.8%.
The result for `COc1ccc(N(C(=O)CCl)C(C(=O)NCCc2ccccc2)c2cccs2)cc1Cl` (stereo not given) reads 68.2%.
In the case of `c1ccc2c(Nc3nnc(-c4ccncc4)s3)cccc2c1`, the plasma stability was found to be 99.5%.
The result for `COc1ccc(C2CC(c3ccccc3)=NN2c2ccc(S(N)(=O)=O)cc2)cc1` (stereo not given) reads 79.5%; that for `CN(C)C1=C(Cl)C(=O)N(c2ccc(Cl)c(Cl)c2)C1=O`, 0.83%; that for `CN(C)c1oc(-c2ccc(OCc3ccc(Cl)cc3)cc2)nc1C#N`, 94.3%.
With `O=C1NCCCc2c1oc1ccc(O)cc21` the figure was 95.7%.
With `Cn1nnnc1Sc1ncnc2scc(-c3ccccc3)c12` the figure was 76.8%.
`Brc1cc2c(cc1C1Nc3ccccc3C3C=CCC31)OCO2` (stereo not given) registered a plasma stability of 97%.
Take `COC(=O)c1ccccc1NC(=O)c1ccc(F)cc1`: the plasma stability came out at 80%.
For the molecule `O=C(c1ccccn1)N(Cc1cccs1)C1(C(=O)NC2CCCCC2)CCCCC1`, the plasma stability turned out to be 96.7%.

Source of the values: PubChem BioAssay AID624420 (Sanford-Burnham Center for Chemical Genomics, 2012).
